Drawing on patent publication US20230042881A1, “MODULATORS OF INTEGRATED STRESS RESPONSE PATHWAY” (Praxis Biotech LLC, priority 2021, published 2023), this text covers IC50 and activity for 15 molecules.

Read-outs that look alike come from different tables or passages of the source.

Experiment [1] deals with ATF4. Nature of the experiment: ATF4 expression inhibition assay (ATF4 5′UTR luciferase reporter, thapsigargin-stressed). It is filed as cell-based. As to conditions: Homo sapiens, HEK-293T, read-out: ATF4 inhibition. As for the experimental part:
The ATF4 reporter was prepared by fusing the human full length 5′UTR of ATF4 (NCBI Accession No. BC022088.2) upstream of the firefly luciferase coding sequence lacking the initiator methionine. The fused sequence was cloned into pLenti-EF1a-C-Myc-DDK-IRES-Puro cloning vector (Origen #PS100085) using standard methods.
HEK293T cells carrying the ATF4 luciferase reporter were plated on 96-well plates (Nunc) at 10,000 cells per well. Cells were treated two days after seeding with 100 nM thapsigargin (Tg) (Sigma-Aldrich #T9033) in the presence of different concentrations of selected compounds ranging from 0.1 nM to […]. Cells without treatment or cells treated with Tg alone were used as controls. Assay plates containing cells were incubated for 3 hours at 37° C.
Luciferase reactions were performed using Luciferase Assay System (Promega #E1501) as specified by the manufacturer. Luminescence was read with an integration time of 1 s and a gain of 110 using a Cytation-5 multi-mode microplate reader (BioTek).
A general note: A reporter such as luciferase makes a cellular process visible.

Experiment [2] concerns Chinese hamster ovary (CHO) cells. Nature of the experiment: Protein synthesis assay (puromycin incorporation, Western blot). It is filed as cell-based. As to conditions: Cricetulus griseus, read-out: % Protein synthesis relative to untreated (1 μM test compound). As for the experimental part:
Chinese hamster ovary (CHO) cells were maintained at 37° C. and 5% CO2 in Dulbecco's Modified Eagle's Media (DMEM) supplemented with 10% fetal bovine serum, 2 mM L-glutamine, 100 U/ml penicillin, and 100 μg/ml streptomycin. After reaching 80% of confluence, cells were detached and seeded on 6 well plates in complete media, allowed to recover overnight and treated for 2 hours with 1 μM of the test compound (to assess protein synthesis levels in unstressed condition), or for 2 hours with 300 nM Tg in the presence of 1 μM of the test compound (to assess the recovery of protein synthesis in a stressed condition). Cells with Tg alone were used as controls.
After the 2 hours treatments, media were replaced by adding 10 μg/ml puromycin (Sigma Aldrich #P8833) in complete media for 30 min. Media were removed and cells were lysed with SDS-PAGE lysis buffer. Lysates were transferred to 1.5 ml tubes and sonicated for 3 min and total protein amount were quantified using BCA Protein Assay Kit (Pierce). Equal amount of protein (30 μg) was loaded on SDS-PAGE gels.
A HRP-conjugated secondary antibody (Rockland) was employed to detect immune-reactive bands using enhanced chemiluminescence (ECL Western Blotting Substrate, Pierce). Quantification of protein bands was done by densitometry using ImageJ software.
The percentage levels were normalized to the media alone condition, which correspond to 100% protein synthesis. […]
In general terms: In western blotting, separated proteins are transferred to a membrane and probed.

The mark [3] stands for this setting: HEK293T cells carrying ATF4 luciferase reporter, 100 nM thapsigargin (Tg), 3 hours at 37° C.
[4] abbreviates: unstressed CHO cells (without Tg), 2 hours, 1 μM test compound, media alone = 100%.

Consider `O=C(NCc1cc2cc(Cl)ccc2o1)C1CCN(NC(=O)C2CNc3cc(Cl)ccc3O2)CC1` (stereo not drawn) [Compound 50, 6-chloro-N-(4-(((5-chlorobenzofuran-2-yl)methyl)carbamoyl)piperidin-1-yl)-3,4-dihydro-2H-benzo[b][1,4]oxazine-2-carboxamide], for which the IC50 in experiment [1] (setting [3]) fell in the range of 10 to 100 nM. Moreover, the activity at 1 µM in experiment [2] (setting [4]) is 85.1%.

Consider `O=C(COc1ccc(Cl)c(F)c1)N[C@H]1CC[C@H](C(=O)NCC2CNc3cc(Cl)ccc3O2)CC1` (stereo partly drawn) [Compound 67, trans-N-((6-chloro-3,4-dihydro-2H-benzo[b][1,4]oxazin-2-yl)methyl)-4-(2-(4-chloro-3-fluorophenoxy)acetamido)cyclohexanecarboxamide], for which the IC50 in experiment [1] (setting [3]) is less than 10 nM. Further, in experiment [2] (setting [4]), the activity at 1 µM was 109%.

For `O=C(COc1ccc(Cl)c(F)c1)NN1CCC(C(=O)NCC2CNc3cc(Cl)ccc3O2)CC1` (stereo not drawn) [Compound 68, N-((6-chloro-3,4-dihydro-2H-benzo[b][1,4]oxazin-2-yl)methyl)-1-(2-(4-chloro-3-fluorophenoxy)acetamido)piperidine-4-carboxamide], the IC50 in experiment [1] (setting [3]) is less than 10 nM. In addition, the activity at 1 µM in experiment [2] (setting [4]) amounted to 98.3%.

In the case of `O=C(N[C@H]1CC[C@H](C(=O)NCC2CNc3cc(Cl)ccc3O2)CC1)c1ccc2cc(Cl)ccc2n1` (stereo partly drawn) [Compound 71, trans-6-chloro-N-(4-(((6-chloro-3,4-dihydro-2H-benzo[b][1,4]oxazin-2-yl)methyl)carbamoyl)cyclohexyl)quinoline-2-carboxamide], in experiment [1] (setting [3]), the IC50 was less than 10 nM. For the same molecule, the activity at 1 µM in experiment [2] (setting [4]) worked out at 174%.

In the case of `O=C(NN1CCC(C(=O)NCC2CNc3cc(Cl)ccc3O2)CC1)c1ccc2cc(Cl)ccc2n1` (stereo not drawn) [Compound 72, 6-chloro-N-(4-(((6-chloro-3,4-dihydro-2H-benzo[b][1,4]oxazin-2-yl)methyl)carbamoyl)piperidin-1-yl)quinoline-2-carboxamide], the IC50 in experiment [1] (setting [3]) was less than 10 nM. For the same molecule, the activity at 1 µM in experiment [2] (setting [4]) amounted to 92.2%.

Regarding `O=C(N[C@H]1CC[C@H](C(=O)NCC2CNc3cc(Cl)ccc3O2)CC1)c1cc2cc(Cl)ccc2o1` (stereo partly drawn) [Compound 75, 5-chloro-N-(trans-4-(((6-chloro-3,4-dihydro-2H-benzo[b][1,4]oxazin-2-yl)methyl)carbamoyl)cyclohexyl)benzofuran-2-carboxamide], in experiment [1] (setting [3]), the IC50 was less than 10 nM. Besides, the activity at 1 µM in experiment [2] (setting [4]) is 114%.

In the case of `O=C(N[C@H]1CC[C@H](C(=O)NCC2CNc3cc(Cl)ccc3O2)CC1)C1CNc2cc(Cl)ccc2O1` (stereo partly drawn) [Compound 77, 6-chloro-N-(trans-4-(((6-chloro-3,4-dihydro-2H-benzo[b][1,4]oxazin-2-yl)methyl)carbamoyl)cyclohexyl)-3,4-dihydro-2H-benzo[b][1,4]oxazine-2-carboxamide], in experiment [1] (setting [3]), the IC50 was 10 to 100 nM. Further, in experiment [2] (setting [4]), the activity at 1 µM came out at 76.6%.

As to `O=C(COc1ccc(Cl)c(F)c1)NN1CCC(C(=O)Nc2nc3cc(Cl)ccc3o2)CC1` [Compound 97, 1-(2-(4-chloro-3-fluorophenoxy)acetamido)-N-(5-chlorobenzo[d]oxazol-2-yl)piperidine-4-carboxamide], the IC50 in experiment [1] (3 h) was 10 to 100 nM. For the same molecule, the activity at 1 µM in experiment [2] (CHO, 2 h) worked out at 71.5%.

Regarding `O=C(N[C@H]1CC[C@H](C(=O)Nc2nc3cc(Cl)ccc3o2)CC1)c1ccc2cc(Cl)ccc2n1` [Compound 99, 6-chloro-N-(trans-4-((5-chlorobenzo[d]oxazol-2-yl)carbamoyl)cyclohexyl)quinoline-2-carboxamide], the IC50 in experiment [1] (3 h) is 10 to 100 nM. Besides, in experiment [2] (CHO, 2 h), the activity at 1 µM worked out at 84.8%.

For `O=C(NN1CCC(C(=O)Nc2nc3cc(Cl)ccc3o2)CC1)c1ccc2cc(Cl)ccc2n1` [Compound 100, 6-chloro-N-(4-(5-chlorobenzo[d]oxazol-2-ylcarbamoyl)piperidin-1-yl)quinoline-2-carboxamide], the IC50 in experiment [1] (3 h) was 10 to 100 nM. Besides, the activity at 1 µM in experiment [2] (CHO, 2 h) turned out to be 128%.

Take `O=C(COc1ccc(Cl)c(F)c1)NN1CCC(C(=O)Nc2nc3cc(Cl)ccc3s2)CC1` [Compound 116, 1-(2-(4-chloro-3-fluorophenoxy)acetamido)-N-(5-chlorobenzo[d]thiazol-2-yl)piperidine-4-carboxamide]: the IC50 in experiment [1] (setting [3]) is 10 to 100 nM. Besides, the activity at 1 µM in experiment [2] (setting [4]) worked out at 116%.

Consider `O=C(N[C@H]1CC[C@H](C(=O)Nc2nc3cc(Cl)ccc3s2)CC1)c1ccc2cc(Cl)ccc2n1` [Compound 118, 6-chloro-N-(trans-4-(5-chlorobenzo[d]thiazol-2-ylcarbamoyl)cyclohexyl)quinoline-2-carboxamide], for which, in experiment [1] (setting [3]), the IC50 was less than 10 nM. The activity at 1 µM in experiment [2] (setting [4]) was found to be 109%.

Take `O=C(NN1CCC(C(=O)Nc2nc3cc(Cl)ccc3s2)CC1)c1ccc2cc(Cl)ccc2n1` [Compound 119, 6-chloro-N-(4-(5-chlorobenzo[d]thiazol-2-ylcarbamoyl)piperidin-1-yl)quinoline-2-carboxamide]: the IC50 in experiment [1] (setting [3]) is less than 10 nM. Also, in experiment [2] (setting [4]), the activity at 1 µM stood at 118%.

Consider `O=C(CO[C@H]1C[C@@H](OC(F)(F)F)C1)N[C@H]1CC[C@H](C(=O)Nc2nc3cc(Cl)ccc3s2)CC1` [Compound 120, trans-N-(5-chlorobenzo[d]thaizol-2-yl)-4-(2-(cis-3-(trifluoromethoxy)cyclobutoxy)acetamido)cyclohexanecarboxamide], for which, in experiment [1] (setting [3]), the IC50 was 10 to 100 nM. For the same molecule, the activity at 1 µM in experiment [2] (setting [4]) was found to be 122%.

Regarding `O=C(Nc1ccc2cc(Cl)ccc2n1)C1CCN(NC(=O)[C@H]2C[C@@H](O)c3cc(Cl)ccc3O2)CC1` [Compound 124, 1-((2R,4R)-6-chloro-4-hydroxychroman-2-carboxamido)-N-(6-chloroquinolin-2-yl)piperidine-4-carboxamide], the IC50 in experiment [1] (setting [3]) is less than 10 nM. In addition, in experiment [2] (setting [4]), the activity at 1 µM was 183%.
